This is an account of results in ChEMBL document CHEMBL1240295, “Specificity and mechanism of action of some commonly used protein kinase inhibitors” (Biochem J, 2000).

The target in experiment [1] is Phosphatidylinositol 4,5-bisphosphate 3-kinase catalytic subunit alpha isoform (Bos taurus) (UniProt P32871). Description: Inhibition of His-tagged bovine PI3K expressed in Sf9 cells at 20 uM.
In experiment [2] the target is Ribosomal protein S6 kinase alpha-5 (Homo sapiens, UniProt O75582). Description: Inhibition of His-tagged human MSK1 expressed in Sf9 cells.
In experiment [3] the target is Myosin light chain kinase, smooth muscle (Gallus gallus, UniProt P11799). Description: Inhibition of chicken SmMLCK expressed in Escherichia coli.

The structures appear in SMILES notation.

Phosphatidylinositol 4,5-bisphosphate 3-kinase catalytic subunit alpha isoform (Bos taurus), sequence (P32871 whole entry, canonical isoform): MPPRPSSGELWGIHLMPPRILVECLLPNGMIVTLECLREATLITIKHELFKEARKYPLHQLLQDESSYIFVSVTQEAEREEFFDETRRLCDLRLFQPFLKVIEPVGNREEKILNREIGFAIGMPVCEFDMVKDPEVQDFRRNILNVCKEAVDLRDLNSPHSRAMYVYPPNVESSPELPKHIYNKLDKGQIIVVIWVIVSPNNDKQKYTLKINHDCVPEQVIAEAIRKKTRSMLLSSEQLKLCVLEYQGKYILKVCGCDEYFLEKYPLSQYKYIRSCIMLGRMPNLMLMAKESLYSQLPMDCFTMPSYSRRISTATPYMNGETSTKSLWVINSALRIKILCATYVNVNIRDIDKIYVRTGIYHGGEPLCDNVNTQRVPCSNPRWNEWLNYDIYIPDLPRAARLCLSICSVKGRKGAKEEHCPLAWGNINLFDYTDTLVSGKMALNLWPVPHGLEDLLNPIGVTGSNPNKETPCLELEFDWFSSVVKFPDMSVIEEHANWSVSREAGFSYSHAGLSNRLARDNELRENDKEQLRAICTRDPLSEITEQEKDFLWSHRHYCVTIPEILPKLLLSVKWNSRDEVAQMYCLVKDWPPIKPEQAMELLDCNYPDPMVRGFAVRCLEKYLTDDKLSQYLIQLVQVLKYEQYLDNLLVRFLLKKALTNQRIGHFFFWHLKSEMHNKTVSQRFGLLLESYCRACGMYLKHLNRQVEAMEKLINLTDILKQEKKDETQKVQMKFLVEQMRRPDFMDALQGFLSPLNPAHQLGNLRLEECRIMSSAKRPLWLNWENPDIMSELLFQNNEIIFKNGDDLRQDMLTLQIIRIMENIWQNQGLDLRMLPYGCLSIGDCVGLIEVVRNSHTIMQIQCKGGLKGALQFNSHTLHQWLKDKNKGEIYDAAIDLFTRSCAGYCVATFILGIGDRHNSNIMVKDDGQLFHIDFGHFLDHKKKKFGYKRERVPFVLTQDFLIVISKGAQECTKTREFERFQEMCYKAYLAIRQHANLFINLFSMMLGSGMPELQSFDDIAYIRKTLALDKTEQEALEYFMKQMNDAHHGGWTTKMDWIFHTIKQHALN
Myosin light chain kinase, smooth muscle, sequence (P11799 whole entry): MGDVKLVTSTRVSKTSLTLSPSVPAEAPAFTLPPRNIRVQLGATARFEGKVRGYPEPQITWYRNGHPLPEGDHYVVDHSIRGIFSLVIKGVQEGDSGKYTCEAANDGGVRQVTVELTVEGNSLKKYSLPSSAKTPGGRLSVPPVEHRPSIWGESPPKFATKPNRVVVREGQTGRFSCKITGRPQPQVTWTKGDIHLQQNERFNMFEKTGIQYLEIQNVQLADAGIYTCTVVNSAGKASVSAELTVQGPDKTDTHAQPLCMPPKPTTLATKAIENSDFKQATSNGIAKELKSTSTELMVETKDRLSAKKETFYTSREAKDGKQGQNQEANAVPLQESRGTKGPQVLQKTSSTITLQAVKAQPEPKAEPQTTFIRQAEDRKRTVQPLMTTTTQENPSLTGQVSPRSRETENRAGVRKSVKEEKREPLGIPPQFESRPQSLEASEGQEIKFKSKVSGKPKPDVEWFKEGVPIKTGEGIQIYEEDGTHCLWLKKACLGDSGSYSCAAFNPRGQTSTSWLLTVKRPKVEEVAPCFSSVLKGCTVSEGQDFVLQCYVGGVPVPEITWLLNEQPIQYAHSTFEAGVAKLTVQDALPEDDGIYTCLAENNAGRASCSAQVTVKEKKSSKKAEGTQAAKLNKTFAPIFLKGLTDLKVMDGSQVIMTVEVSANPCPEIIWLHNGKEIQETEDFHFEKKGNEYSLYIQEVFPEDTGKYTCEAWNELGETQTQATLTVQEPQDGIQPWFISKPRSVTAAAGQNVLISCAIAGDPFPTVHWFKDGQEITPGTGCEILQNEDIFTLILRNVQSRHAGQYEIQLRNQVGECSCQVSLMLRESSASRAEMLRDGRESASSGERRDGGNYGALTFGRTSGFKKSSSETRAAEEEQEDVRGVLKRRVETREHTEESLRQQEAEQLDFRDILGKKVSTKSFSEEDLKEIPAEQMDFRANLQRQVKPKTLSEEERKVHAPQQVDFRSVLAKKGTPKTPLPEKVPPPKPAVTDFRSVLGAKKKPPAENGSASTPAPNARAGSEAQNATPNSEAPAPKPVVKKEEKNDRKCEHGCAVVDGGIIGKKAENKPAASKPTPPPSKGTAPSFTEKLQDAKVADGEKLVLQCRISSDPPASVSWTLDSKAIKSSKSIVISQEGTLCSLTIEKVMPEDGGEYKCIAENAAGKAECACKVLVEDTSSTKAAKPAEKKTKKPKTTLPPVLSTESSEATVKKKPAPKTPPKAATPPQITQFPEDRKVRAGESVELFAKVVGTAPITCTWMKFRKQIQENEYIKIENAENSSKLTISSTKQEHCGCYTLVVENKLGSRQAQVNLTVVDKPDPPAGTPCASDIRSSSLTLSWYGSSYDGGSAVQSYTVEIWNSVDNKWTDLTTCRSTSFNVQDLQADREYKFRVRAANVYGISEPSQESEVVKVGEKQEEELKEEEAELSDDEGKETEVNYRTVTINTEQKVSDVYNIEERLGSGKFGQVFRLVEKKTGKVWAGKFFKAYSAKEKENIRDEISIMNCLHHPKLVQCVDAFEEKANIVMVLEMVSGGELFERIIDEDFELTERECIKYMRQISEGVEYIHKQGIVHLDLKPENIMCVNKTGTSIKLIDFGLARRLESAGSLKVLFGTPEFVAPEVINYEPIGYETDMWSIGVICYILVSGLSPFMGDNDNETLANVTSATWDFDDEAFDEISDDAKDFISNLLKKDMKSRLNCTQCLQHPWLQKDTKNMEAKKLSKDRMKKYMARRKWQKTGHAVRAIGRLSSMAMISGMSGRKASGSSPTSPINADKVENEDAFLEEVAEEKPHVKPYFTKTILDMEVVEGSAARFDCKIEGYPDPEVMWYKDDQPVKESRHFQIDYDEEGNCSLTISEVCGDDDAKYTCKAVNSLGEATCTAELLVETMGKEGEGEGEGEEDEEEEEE
Ribosomal protein S6 kinase alpha-5, sequence (O75582 whole entry): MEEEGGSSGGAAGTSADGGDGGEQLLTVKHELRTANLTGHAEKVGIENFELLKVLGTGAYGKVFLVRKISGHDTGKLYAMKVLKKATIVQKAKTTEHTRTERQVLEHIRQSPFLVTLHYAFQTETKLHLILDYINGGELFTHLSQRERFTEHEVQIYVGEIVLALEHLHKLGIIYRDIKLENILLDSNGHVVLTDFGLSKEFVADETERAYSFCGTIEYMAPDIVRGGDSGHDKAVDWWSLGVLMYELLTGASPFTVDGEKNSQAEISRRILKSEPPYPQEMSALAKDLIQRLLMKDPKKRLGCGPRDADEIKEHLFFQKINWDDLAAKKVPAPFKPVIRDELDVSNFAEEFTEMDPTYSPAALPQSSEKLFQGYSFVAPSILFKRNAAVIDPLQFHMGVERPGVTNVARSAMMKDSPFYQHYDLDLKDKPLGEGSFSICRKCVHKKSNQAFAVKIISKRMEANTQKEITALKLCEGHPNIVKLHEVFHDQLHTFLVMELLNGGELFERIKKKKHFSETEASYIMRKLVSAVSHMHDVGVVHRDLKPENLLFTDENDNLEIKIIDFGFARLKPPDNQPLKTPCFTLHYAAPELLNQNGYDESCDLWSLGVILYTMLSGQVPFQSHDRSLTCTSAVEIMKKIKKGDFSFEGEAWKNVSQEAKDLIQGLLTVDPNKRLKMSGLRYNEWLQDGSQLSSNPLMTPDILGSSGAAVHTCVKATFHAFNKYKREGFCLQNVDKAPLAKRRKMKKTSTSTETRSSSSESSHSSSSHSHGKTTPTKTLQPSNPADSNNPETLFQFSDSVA

In the case of `O=c1c(O)c(-c2ccc(O)c(O)c2)oc2cc(O)cc(O)c12`, in experiment [1], the inhibition was 18%.

Consider `Cn1cc(C2=C(c3cn(CCCSC(=N)N)c4ccccc34)C(=O)NC2=O)c2ccccc21` [BISINDOLYLMALEIMIDE IX], for which half-maximal inhibition in experiment [2] (IC50) was put at 0.008 µM.

`COC[C@H]1OC(=O)c2coc3c2[C@@]1(C)C1=C(C3=O)[C@@H]2CCC(=O)[C@@]2(C)C[C@H]1OC(C)=O` [WORTMANNIN] gave an IC50 in experiment [3] of 0.26 µM.

A word on the inhibition: it is the drop in the measured response relative to a control, in per cent. A lower inhibition goes with little suppression. In general, IC50 refers to the concentration that inhibits the measured activity by half. A higher IC50 goes with lower potency.
